The experiment deals with T1, M-phase inducer phosphatase 2 (Homo sapiens, UniProt P30305).
T1 sequence (P30305 whole entry): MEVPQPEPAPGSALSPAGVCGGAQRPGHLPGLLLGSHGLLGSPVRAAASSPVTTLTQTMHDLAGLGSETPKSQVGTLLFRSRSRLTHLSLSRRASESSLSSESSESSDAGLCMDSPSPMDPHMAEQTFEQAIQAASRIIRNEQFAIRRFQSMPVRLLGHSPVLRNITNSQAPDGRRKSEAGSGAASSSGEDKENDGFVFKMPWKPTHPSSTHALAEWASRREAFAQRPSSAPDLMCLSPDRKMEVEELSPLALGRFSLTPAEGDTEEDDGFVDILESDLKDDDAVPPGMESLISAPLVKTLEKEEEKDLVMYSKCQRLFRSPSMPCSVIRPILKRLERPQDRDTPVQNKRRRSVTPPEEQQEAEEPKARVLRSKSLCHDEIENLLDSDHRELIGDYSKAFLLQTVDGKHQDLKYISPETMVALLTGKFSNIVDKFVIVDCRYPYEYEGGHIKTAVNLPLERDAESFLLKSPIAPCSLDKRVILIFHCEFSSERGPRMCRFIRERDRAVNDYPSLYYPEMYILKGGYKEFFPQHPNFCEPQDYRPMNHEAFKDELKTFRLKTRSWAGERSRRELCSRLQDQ
In words: Cdc25B catalytic domain phosphatase inhibitors, dose response, biochemical, 25 mM DTT, probe assessment (AID 649).

A value given as a limit tells only on which side of the number the result lay.

As to `COc1ccc2noc3c2c1C(=O)c1ccccc1-3` [MLS000106874], the IC50 – broadly, the concentration that gives 50% inhibition – was more than 50 µM.

For `O=C(OC1CCCCC1)c1ccc2c(c1)C1C=CCC1C(C(=O)O)N2` (stereo not drawn) [SMR000019385], the IC50 was determined as 7.42 µM.

Regarding `N#Cc1c(N)sc(=S)c2c1CCN(Cc1ccccc1)C2` [3-Amino-7-benzyl-1-thioxo-5,6,7,8-tetrahydro-1H-thiopyrano[3,4-c]pyridine-4-carbonitrile], the half-inhibitory concentration (IC50) was determined as 49.3 µM.

The compound `O=C(NC1(O)C(=O)c2ccccc2C1=O)c1ccccc1` [N-(2-hydroxy-1,3-dioxo-2-indenyl)benzamide] yielded a concentration for half-maximal inhibition (IC50) of more than 50 µM.

For `CC(=O)Nc1cc(OC(C)=O)c2nonc2c1OC(C)=O` [Acetic acid 7-acetoxy-5-acetylamino-benzo[1,2,5]oxadiazol-4-yl ester], the IC50 is more than 50 µM.

The compound `Oc1nc(Nc2ccccc2)cc2ccccc12` [MLS000043701] displayed a concentration for half-maximal inhibition (IC50) of 48 µM. This counts as double-digit micromolar.

The compound `[O-]/[N+](=C\c1ccc(OC(F)F)cc1)c1ccccc1` [1-[4-(difluoromethoxy)phenyl]-N-phenylmethanimine oxide] returned an IC50 of more than 50 µM.

`COc1cccc2c1NC(C(=O)O)C1CC=CC21` (stereo not drawn) [SMR000009698] registered a concentration for half-maximal inhibition (IC50) of 11.7 µM.

`O=C1C=Cc2ccccc2/C1=C/NC12CN3CCN(CN(C3)C1)C2` [MLS000071484] gave a half-inhibitory concentration (IC50) of more than 50 µM.

`Nc1cccc2cnccc12` [isoquinolin-5-amine] yielded an IC50 of more than 50 µM.

With `Cn1ncnc2c(=O)n(C)c(=O)nc1-2`, the IC50 worked out at 34.5 µM.

`Cc1ccc2c(c1)C1C=CCC1C(C(=O)O)N2` (stereo not drawn) [MLS-0067149.0001] displayed a concentration for half-maximal inhibition (IC50) of 11.4 µM.

With `N#Cc1c(N2CCCC2)nc(N)c2c(N)nc(N3CCCC3)cc12` [SMR000061605], the IC50 was more than 50 µM.

Turning to `CCn1nc(-c2cccs2)nc2c(=O)n(C)c(=O)nc1-2` [1-ethyl-6-methyl-3-thiophen-2-yl-pyrimido[5,4-e][1,2,4]triazine-5,7-dione], inhibition was half-maximal at 17.2 µM (IC50).

Turning to `CCOc1ccc2noc3c2c1C(=O)c1ccccc1-3` [MLS000106837], the IC50 was more than 50 µM.

Compound `CCOC(=O)C(C(=O)OCC)c1cc(Br)c2noc3c2c1C(=O)c1ccccc1-3` [MLS000038842] registered an IC50 of more than 50 µM.

With `CCn1nc(-c2ccccc2)nc2c(=O)n(C)c(=O)nc1-2` [1-Ethyl-6-methyl-3-phenyl-1H-pyrimido[5,4-e][1,2,4]triazine-5,7-dione], the IC50 was 21.1 µM.

For `COc1cccc2c(C)c(C(=O)O)[nH]c12`, inhibition was half-maximal at 10.9 µM (IC50).

As to `O=C1Cc2ccccc2C(=O)N1CCc1ccccc1` [2-(2-phenylethyl)-4H-isoquinoline-1,3-dione], the half-inhibitory concentration (IC50) was more than 50 µM.

Consider `[O-]/[N+](=C\c1ccncc1)c1ccccc1`, for which the IC50 was more than 50 µM.

The compound `c1ccc(CSc2nnc(-c3ccco3)c(-c3ccco3)n2)cc1` [MLS-0029114.0001] showed a concentration for half-maximal inhibition (IC50) of more than 50 µM.

`O=C(Nc1ccc2nc(-c3ccco3)c(-c3ccco3)nc2c1)N1CCCCCC1` showed an IC50 of 39.8 µM.

Compound `COc1ccc(Br)cc1C=c1sc2nc(-c3ccco3)nn2c1=O` [5-[(5-bromanyl-2-methoxy-phenyl)methylidene]-2-(furan-2-yl)-[1,3]thiazolo[3,2-b][1,2,4]triazol-6-one] had an IC50 of 14.7 µM.

Compound `Cc1ccccc1Nc1cc2ccccc2c(O)n1` [3-[(2-methylphenyl)amino]-2H-isoquinolin-1-one] returned an IC50 of 42.3 µM.

For the compound `O=C(O)C1Nc2c(O)cccc2C2C=CCC12` (stereo not drawn), the IC50 turned out to be 12.8 µM. This IC50 lies about 3.3-fold lower than the previous one.

Take `O=C1C=Cc2ccccc2C1=O` [1,2-dihydronaphthalene-1,2-dione]: the IC50 was more than 50 µM.

Turning to `Cc1c(N=c2c(=O)c3ccccc3c2=O)c(=O)n(-c2ccccc2)n1C` [MLS000105950], the concentration for half-maximal inhibition (IC50) was more than 50 µM.

As for `Cc1ccc2c(c1C)NC(C(=O)O)C1CC=CC21` (stereo not drawn), the half-maximal inhibitory concentration (IC50) worked out at 17.7 µM.

For the origin of these results see BindingDB's records for doi:10.7270/Q29K48M5 (University of Pittsburgh, 2007).
